Measured values: patent publication US10196391B2 (Hoffmann-La Roche Inc., priority 2014, dated 2019)

test system: HBV DNA; experiment: HBV DNA assay (real-time qPCR) in HepG2.2.15 cells; assay type: cell-based; conditions: Hepatitis B virus, 144 h, extracellular HBV DNA, 6 days, read-out: IC50 (Anti HBV DNA production activity)
Method: HepG2.2.15 cells (Acs et al. Proc Natl Acad Sci USA, 84, (1987), 4641-4), a constitutively HBV-expressing cell line were cultured in DMEM+Glutamax-I medium (Invitrogen, Carlsbad, Calif., USA), supplemented with 10% fetal bovine serum (Invitrogen) and G418 (Invitrogen) at a final concentration of 200 mg/L and maintained in 5% CO2 at 37° C.
The assay employs real-time qPCR (TaqMan) to directly measure extracellular HBV DNA copy number. HepG2.2.15 cells were plated in 96-well microtiter plates. Only the interior wells were utilized to reduce “edge effects” observed during cell culture, the exterior wells were filled with complete medium to help minimize sample evaporation. On the following day, the HepG2.2.15 cells were washed and the medium was replaced with complete medium containing various concentrations of a test compound in triplicate. 3TC was used as the positive control, while media alone was added to cells as a negative control (virus control, VC). Three days later, the culture medium was replaced with fresh medium containing the appropriately diluted drug. Six days following the initial administration of the test compound, the cell culture supernatant was collected, treated with pronase and then used in a real-time qPCR/TaqMan assay to determine HBV DNA copy numbers. Antiviral activity was calculated from the reduction in HBV DNA levels (IC50). […]

| Compound | IC50 [nM] |
| --- | --- |
| CS(=O)(=O)c1ccc(N2CCc3nc(-c4ccccn4)nc(O)c3C2)cc1 [Example 80, 6-(4-methylsulfonylphenyl)-2-(2-pyridyl)-3,5,7,8-tetrahydropyrido-[4,3-d]pyrimidin-4-one] | 160 |

test system: HBsAg; experiment: HBsAg assay (CLIA) in HepG2.2.15 cells; assay type: cell-based, HBV; conditions: Hepatitis B virus, HepG2.2.15, read-out: IC50 (HBsAg assay)
Summary of the method: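 IC50 taken from dose-response curves as the concentration halving secreted HBsAg relative to DMSO control. Measured by chemiluminescence immunoassay of culture supernatant from constitutively HBV-expressing HepG2.2.15 cells, seeded at 1.5×10^4/well in duplicate and exposed to three-fold serial compound dilutions at 1% final DMSO.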

| Compound | IC50 [µM] |
| --- | --- |
| CS(=O)(=O)c1ccc(N2CCc3nc(-c4ccccn4)nc(O)c3C2)cc1 [Example 80, 6-(4-methylsulfonylphenyl)-2-(2-pyridyl)-3,5,7,8-tetrahydropyrido-[4,3-d]pyrimidin-4-one] | 5.94 |
| CCOc1ccc(N2CCc3nc(-c4ccccn4)ncc3C2)cc1F [Example 54, 6-(4-ethoxy-3-fluoro-phenyl)-2-(2-pyridyl)-7,8-dihydro-5H-pyrido[4,3-d]pyrimidine] | 3.91 |
| COc1cc(Cl)cc(N2CCc3nc(-c4ncccn4)ncc3C2)n1 [Example 115, 6-(4-chloro-6-methoxy-2-pyridyl)-2-pyrimidin-2-yl-7,8-dihydro-5H-pyrido[4,3-d]pyrimidine] | 0.352 |
| c1ccc(-c2ncc3c(n2)CCN(c2cccnc2)C3)nc1 [Example 39, 2-(2-pyridyl)-6-(3-pyridyl)-7,8-dihydro-5H-pyrido[4,3-d]pyrimidine] | 9.12 |
| O=S(=O)(c1ccc(N2CCc3nc(-c4ccccn4)ncc3C2)cc1)C(F)(F)F [Example 12, 2-(2-pyridyl)-6-[4-(trifluoromethylsulfonyl)phenyl]-7,8-dihydro-5H-pyrido[4,3-d]pyrimidine] | 13.3 |
| COCCOc1ccc(N2CCc3nc(-c4ccccn4)ncc3C2)cc1OC [Example 57, 6-[3-methoxy-4-(2-methoxyethoxy)phenyl]-2-(2-pyridyl)-7,8-dihydro-5H-pyrido[4,3-d]pyrimidine] | 2.17 |
| CCCOc1ccc(N2CCc3nc(-c4ccccn4)ncc3C2)cc1F [Example 55, 6-(3-fluoro-4-propoxy-phenyl)-2-(2-pyridyl)-7,8-dihydro-5H-pyrido[4,3-d]pyrimidine] | 1.18 |
| CCOc1nc(-c2ccccn2)nc2c1CN(c1ccc(S(C)(=O)=O)cc1)CC2 [Example 82] | 3.35 |
| COc1cc(N2CCc3nc(-c4ccccn4)ncc3C2)ccc1C#N [Example 60, 2-methoxy-4-[2-(2-pyridyl)-7,8-dihydro-5H-pyrido[4,3-d]pyrimidin-6-yl]benzonitrile] | 0.371 |
| CS(=O)(=O)c1ccc(N2CCc3nc(-c4ccccn4)nc(OCc4ccccc4)c3C2)cc1 [Example 83] | 20 |
| COCCCOc1ccc(N2CCc3nc(-c4ccccn4)ncc3C2)cc1OC [Example 44, 6-[3-methoxy-4-(3-methoxypropoxy)phenyl]-2-(2-pyridyl)-7,8-dihydro-5H-pyrido[4,3-d]pyrimidine] | 18.9 |
| Fc1cc(N2CCc3nc(-c4ncccn4)ncc3C2)cc(F)n1 [Example 109, 6-(2,6-difluoro-4-pyridyl)-2-pyrimidin-2-yl-7,8-dihydro-5H-pyrido[4,3-d]pyrimidine] | 4.09 |
| Fc1ccc(N2CCc3nc(-c4ccccn4)ncc3C2)cc1Br [Example 51, 6-(3-bromo-4-fluoro-phenyl)-2-(2-pyridyl)-7,8-dihydro-5H-pyrido[4,3-d]pyrimidine] | 5.36 |
| FC(F)Oc1cccc(N2CCc3nc(-c4ncccn4)ncc3C2)c1 [Example 63, 6-[3-(difluoromethoxy)phenyl]-2-pyrimidin-2-yl-7,8-dihydro-5H-pyrido[4,3-d]pyrimidine] | 1.94 |
| Fc1cc(N2CCc3nc(-c4ccccn4)ncc3C2)cc(OCc2ccccc2)c1F [Example 20, 6-(3-benzyloxy-4,5-difluoro-phenyl)-2-(2-pyridyl)-7,8-dihydro-5H-pyrido[4,3-d]pyrimidine] | 2.84 |
| COc1cc(Cl)nc(N2CCc3nc(-c4ncccn4)ncc3C2)c1 [Example 108, 6-(6-chloro-4-methoxy-2-pyridyl)-2-pyrimidin-2-yl-7,8-dihydro-5H-pyrido[4,3-d]pyrimidine] | 0.263 |
| COc1nc(N2CCc3nc(-c4ncccn4)ncc3C2)ccc1F [Example 72, 6-(5-fluoro-6-methoxy-2-pyridyl)-2-pyrimidin-2-yl-7,8-dihydro-5H-pyrido[4,3-d]pyrimidine] | 1.43 |
